{"source": "patent US12329899B2", "about": "“Dry powder inhaler and methods of use” (Aspeya US Inc., priority 2012, dated 2025)", "origin": "cited, not measured here", "key": {"[1]": {"conditions": "oral solution of 650 mg, four male subjects"}, "platelet": {"test_system": "platelet", "conditions": "50 mg/day, some patients; the remainder needed over 50 mg/day"}, "[2]": {"conditions": "any dose above 30 mg daily"}, "[3]": {"conditions": "oral administration, 325 mg"}, "[4]": {"conditions": "75 mg/day"}}}
{"compound": "CC(=O)Oc1ccccc1C(=O)O", "note": "[aspirin, acetylsalicylic acid]", "values": [{"measurement": "dose that reached the peripheral circulation intact (AUC oral vs intravenous)", "setting": "[1]", "result": 68, "unit": "%"}, {"measurement": "platelet inhibition", "setting": "platelet", "result": "satisfactory platelet inhibition"}, {"measurement": "vascular events prevented", "setting": "[2]", "result": 13, "unit": "%"}, {"measurement": "increase of major gastrointestinal and extracranial bleeds", "setting": "[3]", "result": "over 50%"}, {"measurement": "gastrointestinal side-effects, bleeding episodes", "setting": "[4]", "result": "significant excess of bleeding episodes"}, {"measurement": "risk of stroke or death", "setting": "[4]; patients with cerebrovascular ischaemic events", "result": "significantly reduces the risk of stroke or death"}, {"measurement": "loss or inactivation of the oral dosage due to the first pass effect in the gut and liver", "setting": "oral administration", "result": "approximately ⅔"}, {"measurement": "fraction of the dose bioavailable due to the first pass effect", "setting": "taken orally", "result": "about one to two-thirds"}]}
